# Source: US20050276815A1, “Antiviral activity from medicinal mushrooms” (priority 2004, published 2005)
# Tests used:
# [1] = system: Vaccinia; type: cell-based
# [2] = system: Cowpox; type: cell-based
structure (smiles),measurement,setting,value
Nc1ccn(C[C@@H](CO)OCP(=O)(O)O)c(=O)n1 [CDV],PR CDV EC50,[1],4.9 µg/mL
same,PR CDV EC50,[2],10.3 µg/mL
